Measurements taken from patent US20230002346A1, “NEW COMPOUNDS AND METHODS” (BenevolentAl Bio Limited, priority 2019, published 2023).

How the values were obtained:
[1] = Rat PK profile (bioavailability, clearance, half-life); assay type: in vivo; conditions: male, Sprague Dawley, plasma, i.v. dose 1 mg/kg
Procedure: Male Sprague Dawley Rats 300-350 g (Charles River, UK) were group housed, n=3, under a 12 h light/dark cycle with food and water available ad libitum. At 17:00 on the day prior to dosing all food was removed. On the day of dosing animals were weighed, tail marked and dosed via oral gavage with compound at 3 mg/kg in a volume of 5 mL/kg. Animals were culled at 30 min, 1 h and 4 h post dose via intra-peritoneal administration of pentobarbital. Post mortem blood was withdrawn via cardiac puncture, and briefly stored in K2 EDTA blood tubes on ice before being spun at 14,000 g for 4 min at 4° C. Plasma was withdrawn into a 96 well plate, placed on dry ice and stored at −80° C. Brains were quickly dissected and placed on dry ice before storage at −80° C. Bioanalysis of plasma and brain samples is performed as detailed below. Methods were prepared with guidance from industry standard documents.^i,ii
A 10 mM DMSO stock is used to prepare spiking solutions of test compound in the range of 10-100,000 ng/mL in diluent (MeCN:water, 1;1). Calibration lines are prepared in control male Sprague-Dawley Rat plasma at known concentrations in the range of 1-10000 ng/mL by spiking 2.5 μL of calibration spiking solution into 25 μL control plasma. Experimental samples are thawed to RT and 25 μL aliquots are extracted alongside the calibration lines using protein precipitation (agitation for at least 5 min at RT with 400 μL of MeCN containing 25 ng/mL tolbutamide as an internal standard). Protein precipitates are separated from the extracted test compound by centrifugation at 4000 rpm for 5 min, 4° C. The resulting supernatants are diluted in a ratio of 1:2 with a relevant diluent (e.g. 0.1% formic acid in water or 1:1 MeOH:water). Samples are analysed by UPLC-MS/MS on either an API6500 QTrap or Waters 30 TQS mass spectrometer using previously optimised analytical MRM (multiple reaction monitoring) methods, specific to the test compound. The concentration of test compound in isolated samples is determined following analysis of the samples against the two replicates of the calibration line, injected before and after the sample set with an appropriate regression and weighting used. Only samples within 20% of the expected test concentration are included in the calibration line and any samples that fall outside of the limits of the calibration line will be deemed to be less than or above the limit of quantification (LLoQ/ALoQ).
Pharmacokinetic parameters such as bioavailability (% F), clearance (CL), half-life (T½) and volume of distribution are calculated by non-compartmental analysis using Phoenix Winnonlin 64 software (build 8.0). The bioavailability was calculated from p.o. dosed rats, whereas the clearance and half-life were calculated from i.v. dosed rats. Briefly, in vivo plasma concentrations, timepoints and dose values are imported into the software in a compatible format. Plasma concentration for each animal is plotted against time, and the elimination phase identified and selected. The area under the curve for each plot is calculated using a linear trapezoidal linear interpolation from which pharmacokinetic parameters can subsequently be determined. […] Compounds of the invention have much improved clearance (CL) and half-life (T½) compared to the reference examples.

[2] = target: T1, hERG channel (Homo sapiens, UniProt Q12809); assay: hERG assay (QPatch automated patch clamp, CHO cells); assay type: cell-based; conditions: CHO cells expressing hERG, whole-cell patch clamp, 0.003 μM to 10 μM
T1 construct: expressed in transfected cells
T1 sequence (Q12809 whole entry): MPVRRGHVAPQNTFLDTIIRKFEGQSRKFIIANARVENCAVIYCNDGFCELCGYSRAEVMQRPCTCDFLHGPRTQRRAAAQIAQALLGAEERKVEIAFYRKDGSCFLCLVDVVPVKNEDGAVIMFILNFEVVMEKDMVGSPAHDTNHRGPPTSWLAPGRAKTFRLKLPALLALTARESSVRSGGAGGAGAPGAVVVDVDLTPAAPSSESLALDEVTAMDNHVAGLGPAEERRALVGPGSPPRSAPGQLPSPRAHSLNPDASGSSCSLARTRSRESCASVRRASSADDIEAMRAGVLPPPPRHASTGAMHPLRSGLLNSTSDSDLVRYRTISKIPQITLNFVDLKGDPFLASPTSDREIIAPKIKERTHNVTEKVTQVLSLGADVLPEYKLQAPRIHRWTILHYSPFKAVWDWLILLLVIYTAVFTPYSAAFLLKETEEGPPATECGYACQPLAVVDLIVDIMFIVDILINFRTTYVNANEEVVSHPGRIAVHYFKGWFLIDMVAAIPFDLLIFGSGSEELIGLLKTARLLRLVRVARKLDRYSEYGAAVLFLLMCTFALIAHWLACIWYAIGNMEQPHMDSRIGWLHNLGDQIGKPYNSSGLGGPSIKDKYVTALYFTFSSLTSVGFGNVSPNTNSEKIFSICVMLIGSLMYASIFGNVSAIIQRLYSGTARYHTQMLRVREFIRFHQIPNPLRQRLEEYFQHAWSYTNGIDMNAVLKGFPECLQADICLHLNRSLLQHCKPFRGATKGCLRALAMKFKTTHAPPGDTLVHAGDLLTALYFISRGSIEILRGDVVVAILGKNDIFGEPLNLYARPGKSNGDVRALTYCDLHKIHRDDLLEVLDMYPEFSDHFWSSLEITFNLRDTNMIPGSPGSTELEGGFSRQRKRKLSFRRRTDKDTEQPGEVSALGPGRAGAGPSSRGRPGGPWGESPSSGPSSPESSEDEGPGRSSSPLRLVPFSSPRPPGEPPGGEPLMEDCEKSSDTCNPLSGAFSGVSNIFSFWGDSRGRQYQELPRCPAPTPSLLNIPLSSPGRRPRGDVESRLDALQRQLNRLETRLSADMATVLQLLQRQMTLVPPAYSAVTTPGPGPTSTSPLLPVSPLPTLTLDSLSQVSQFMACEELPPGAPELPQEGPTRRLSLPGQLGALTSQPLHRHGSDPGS
Summary of the method: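 Whole-cell QPatch recordings at room temperature on CHO cells stably expressing hERG, "+40/−40" protocol from −90 mV holding, 0.1 Hz. Eight cumulative concentrations (0.003–10 μM) on one cell after 0.1% DMSO vehicle; tail-current inhibition versus vehicle fitted to four-parameter logistic, Hill slopes 0.5–2.0 accepted; mean of N≥3 cells.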

clearance ([1]; iv): 1.9 mL/min/kg
half-life ([1]; iv, read-out: T½ (converted)): 20 h
bioavailability ([1]; po, p.o. dose 3 mg/kg): 97%
SMILES: O=C(Nc1ccc(OC(F)(F)Cl)cc1)c1ccc(=O)n(-c2ccccc2)c1 [Example 56, N-[4-[Chloro(difluoro)methoxy]phenyl]-6-oxo-1-phenyl-pyridine-3-carboxamide]
IC50 [2]: > 10 µM
